Values of other authors in patent publication US9481856B2, “Pharmaceutical formulations comprising stabilized polysaccharides and source of hydrogen peroxide” (Bausch & Lomb Incorporated, priority 2008, dated 2016).

Experiments:
[1] = tested on: goblet cell
[2] = tested on: sensitive tissues of the eye

Substance | effect on goblet cell density [1] | concentration causing necrosis [2]
α-4-{tris(2hydroxyethyl)ammonium-2-butenyl} poly {1-dimethylammonium-2-butenyl}-ω-tris(2-hydroxyethyl)ammonium chloride [polyquaternium-1] | significantly to decrease goblet cell density | 
benzalkonium chloride [BAK] |  | 0.05-0.1%
